Results as given in patent publication US20260070905A1, “Derivatives of Imidazo[1,2-A]Pyridine with Anti-Inflammatory Activity” (Universitat de Veléncia, priority 2023, published 2026).
“Also recorded” adds a separate entry of the source.

How the values were obtained:
[1] = target: T1, recombinant Alk5 kinase (TGFβRI) (Homo sapiens, UniProt P36897); assay: In vitro Alk5 kinase inhibition (Kinase-Glo luminescent kinase assay); format: biochemical; conditions: for % kinase activity reduction: values refer to a 100% reduction in activity of the inhibition control GW788388 Hydrate, concentrations of 5 and 10 μM evaluated, ATP 100 μM, 2 h; for Alk5 kinase inhibition: in vitro kinase assay (FIG. 1)
T1 construct: purchased Abcam ab105908
T1 sequence (P36897 34-503): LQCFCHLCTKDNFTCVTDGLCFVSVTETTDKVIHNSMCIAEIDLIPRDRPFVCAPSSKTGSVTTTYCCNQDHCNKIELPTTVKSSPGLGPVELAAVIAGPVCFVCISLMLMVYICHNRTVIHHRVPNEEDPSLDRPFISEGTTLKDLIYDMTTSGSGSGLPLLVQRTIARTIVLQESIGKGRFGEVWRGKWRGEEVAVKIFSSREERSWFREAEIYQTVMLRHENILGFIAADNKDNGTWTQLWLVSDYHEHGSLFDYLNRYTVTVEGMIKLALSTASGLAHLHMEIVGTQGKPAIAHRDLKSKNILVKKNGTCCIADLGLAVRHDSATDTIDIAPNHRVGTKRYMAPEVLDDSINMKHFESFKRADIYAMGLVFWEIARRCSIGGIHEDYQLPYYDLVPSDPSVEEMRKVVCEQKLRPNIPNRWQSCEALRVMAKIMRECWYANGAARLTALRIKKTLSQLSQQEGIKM
Protocol: For this purpose, recombinant Alk5 (Abcam, ref ab105908) was used, and kinase activity was determined using the commercial Kinase-Glo® Luminiscent kinase assay platform (Promega, ref. TB372).
For this purpose, commercially available recombinant Alk5 protein (Abcam, ref ab105908) was used, as well as the commercial Kinase-Glo® Luminiscent kinase assay platform (Promega, ref TB372), which determines the adenosine triphosphate (ATP) not consumed in the phosphorylation reaction by its conjugation to luciferin in a reaction catalyzed by the luciferase enzyme in the presence of Mg^2+. The luminescence observed is inversely proportional to kinase activity.
From this stock solution, dilutions were made in kinase buffer (Tris-HCl pH 7.5 40 mM; MgCl2 20 mM; bovine serum albumin (BSA) 0.1 mg/mL) of 10 μM and concentrations of 5 and 10 μM were evaluated.
Incubation was carried out for 2 hours at room temperature with stirring and in darkness, following the instructions for the commercial system.
After this time, 50 μL of commercial substrate (diluted 1:8) was added, left to stir for 10 minutes at room temperature, and the luminescence was read using a Luminoskan Ascent instrument (Thermo Scientific, Waltham, USA).
All reactions were performed in duplicate.

Caco-2 cells = assay: Viability / MTT cytotoxicity assay on Caco-2 intestinal epithelial cells; format: cell-based; conditions: Caco-2 epithelial cells, all concentrations used (1, 5 and 10 μM), 24 h (FIG. 3A)
Protocol: To quantify the percentage of cells that remained viable in each of the experiments, THP-1-XBlue™-CD14 macrophages (InvivoGen, 8 to 13 passages) were evaluated, derived from human THP-1 monocytes, which stably express the gene for the alkaline phosphatase enzyme inducible by the NF-kB and AP-1 promoters. Human intestinal epithelial Caco-2 cells (ATCC®, HTB-37TM, 10 to 12 passages) were also evaluated. To do this, Trypan blue (Gibco) was used as an exclusion stain. This dye penetrates cells with damaged membranes (a sign of cell death) and stains their cytoplasm dark blue. To do this, the cell suspensions tested were centrifuged at 500×g (5 min at 24° C.), the cell sediments were resuspended in 0.1 mL of PBS, and then 10 μL were mixed with 10 μL of trypan blue (0.4%) filtered through 0.22 μm. The percentage of live cells was determined in 10 μL of the above mixture using a chamber and a Countess™ cell counter (Invitrogen).
In this second cytotoxicity assessment on THP-1-XBlue-CD14 and Caco-2, the technique previously described was used with the MTT dye (3-(4,5-dimethylthiazol-2-yl)-2,5-diphenyltetrazolium bromide) (Biotium).
To do this, both types of cells were seeded in 96-well plates under conditions identical to those used in the anti-inflammation assays. The cells were then washed with PBS and treated with different compounds: 1) PBS (10 μL) (positive growth control, vehicle); 2) 20% DMSO (negative control, as high doses of this compound are cytotoxic); 3) different concentrations of the compounds PS1801 and PS1906 (1, 5, and 10 μM). The plates were incubated for 24 hours at 37° C., 5% CO2, and then 10 μL of MTT was added to each well and the plate was incubated for 4 hours at 37° C., 5% CO2. The formazan crystals formed were dissolved in 180 μL of DMSO, and the plate was incubated for 20 minutes with shaking at room temperature. The absorbance was measured in each well at 595 nm (problem) and 655 nm (background), following the manufacturer's instructions, using an iMark™ Microplate Absorbance Reader (Bio-Rad). The samples were analyzed in triplicate.

[2] = test system: acute lung injury (ALI) induced by LPS; assay: Murine model of acute lung injury (ALI) induced by intratracheal LPS; format: in vivo, mouse (C57BL/6J-OlaHsd); conditions: mice
Source text: In order to evaluate the potential anti-inflammatory effect of the PS1906 molecule in an in vivo model, we selected the ALI model induced by tracheal instillation of lipopolysaccharide (LPS), which has been widely described in the literature and previously performed by members of the research group (Clemente-Moragón et al., 2020). This murine model is a model of acute lung inflammation or damage associated with a long-term fibrotic period, so it can be used to study both inflammatory lung diseases and pulmonary fibrotic processes.
Mice of the C57BL/6J-OlaHsd strain were chosen for this model. Adult mice were kept in pathogen-free conditions in a temperature-controlled room with a 12-hour light-dark cycle. Food and water were available ad libitum. The mice were anesthetized intraperitoneally with an injection of an anesthetic cocktail containing atropine sulfate (1 mg/kg; B. Braun, 1 mg/mL), xylazine hydrochloride (20 mg/kg; Rompun® Bayer, 20 mg/mL), and ketamine (100 mg/kg; Anesketin Dechra, 100 mg/mL). All experimental and other scientific procedures involving animals complied with EU Directive 2010/63EU and Recommendation 2007/526/EC, enacted into Spanish law under Real Decreto 53/2013. Animal protocols were approved by local ethics committees and the Animal Protection Area of the Autonomous Community of Madrid.
In vitro studies were taken into account when selecting the doses to be administered, with a concentration of 10 μM being considered the maximum effective (non-toxic) concentration. Assuming an approximate blood volume of 2 mL for a mouse weighing about 30 g, and taking into account a loss due to distribution, metabolism, or secretion of 50% of the products, we calculated dose 1 (D1) and selected dose 2 (D2) as twice the first. Thus, taking into account the respective molecular weights, the corresponding doses for the PS1906 product were 156 μg/kg (D1) and 312 μg/kg (D2). Physiological saline was used as a diluent for the preparation of the different doses. All doses were prepared to administer the same volume in the mouse. The doses were administered intravenously with the animal properly anesthetized moments before the induction of pulmonary inflammation. […]
After 24 h, the animals were sacrificed and the lungs were washed with 1.5 mL of cold PBS through a tracheal catheter (Introcan Safety 22G, Braun), and a total of 1 mL of bronchoalveolar lavage fluid was extracted from each mouse for the detection of neutrophils and lymphocytes by flow cytometry. […] The data were analyzed with FlowJo software (Ashland). […]

[3] = test system: THP-1-XBlue™-CD14 macrophages; assay: MTT cytotoxicity assay on THP-1-XBlue-CD14 macrophages; format: cell-based; conditions: THP-1 macrophages, all concentrations used (1, 5 and 10 μM), 24 h (FIG. 2, FIG. 3B)
Source text: To quantify the percentage of cells that remained viable in each of the experiments, THP-1-XBlue™-CD14 macrophages (InvivoGen, 8 to 13 passages), derived from human THP-1 monocytes, which stably express the gene for the alkaline phosphatase enzyme inducible by the NF-kB and AP-1 promoters.
The MTT dye (3-(4,5-dimethylthiazol-2-yl)-2,5-diphenyltetrazolium bromide) (Biotium) was used. This assay is based on the cleavage of the yellow MTT tetrazolium salt to form purple formazan crystals, produced by metabolically active cells. Formazan is solubilized with DMSO and its concentration is determined by spectrophotometry; the optical density is proportional to the number of viable cells.
To do this, the cells were seeded in 96-well plates at a density of 3×10^5 cells/mL in RPMI 1640 medium (Gibco) supplemented with 10% FBS, penicillin, streptomycin (both at a concentration of 100 μg/mL, Sigma-Aldrich), and PMA (100 ng/mL) (Sigma-Aldrich), and were cultured at 37° C., 5% CO2 for 48 h. […] The absorbance was measured in each well at 595 nm (problem) and 655 nm (background), following the manufacturer's instructions, using an iMark™ Microplate Absorbance Reader (Bio-Rad). The samples were analyzed in triplicate. The percentage of viable cells was calculated using the following formula: […]

Oc1ccc(-c2ccn3ccnc3c2)cc1 [Compound 12, 4-(Imidazo[1,2-a]pyridin-7-yl)phenol]
% kinase activity reduction [1]: 87.5%

COc1ccc(-c2cn3ccc(-c4ccc(O)cc4)cc3n2)cc1 [Compound 16, 4-(2-(4-Methoxyphenyl)imidazo[1,2-a]pyridin-7-yl)phenol]
% kinase activity reduction [1]: 75.4%

c1ccc2oc(-c3ccn4ccnc4c3)cc2c1 [Compound 26, 7-(Benzofuran-2-yl)imidazo[1,2-a]pyridine]
cytotoxic effects (cell viability) (Caco-2 cells): no cytotoxic effects | ALI score (histopathological lung damage) ([2]; i.v. 156 μg/kg (D1) and 312 μg/kg (D2), LPS 10 mg/kg intratracheal, 24 h (FIG. 6A, 6B), listed as PS1906): significantly different from the group of sick mice treated with LPS; also recorded: positive effect | neutrophils in bronchoalveolar lavage fluid (flow cytometry) ([2]; i.v. 156 μg/kg (D1) and 312 μg/kg (D2), LPS 10 mg/kg intratracheal, 24 h (FIG. 6C)): dose-dependent anti-inflammatory effect | lymphocytes in bronchoalveolar lavage fluid (flow cytometry) ([2]; i.v. 156 μg/kg (D1) and 312 μg/kg (D2), LPS 10 mg/kg intratracheal, 24 h (FIG. 6D), not statistically significant): dose-dependent anti-inflammatory effect | total number of infiltrated cells in bronchoalveolar lavage fluid (flow cytometry) ([2]; i.v. D1 and D2, LPS intratracheal, 24 h): dose-dependent anti-inflammatory effect | Alk5 kinase inhibition [1]: one of those that showed the greatest inhibitory effect | % kinase activity reduction [1]: 93.4%

CCOC(=O)c1cc2cc(-c3cnc4ccccn34)ccc2[nH]1 [Compound 31, Ethyl 5-(imidazo[1,2-a]pyridin-3-yl)-1H-indole-2-carboxylate]
cytotoxic effects (cell viability) (Caco-2 cells): no cytotoxic effects | % kinase activity reduction [1]: 79.1%

O.O=C(NC1CCOCC1)c1ccc(-c2cc(-c3c[nH]nc3-c3ccccn3)ccn2)cc1 [GW788388, 4-{4-[3-(pyridin-2-yl)-1H-pyrazol-4-yl]-pyridin-2-yl}-N-(tetrahydro-2H-pyran-4-yl)benzamide hydrate, reference compound]
cytotoxic effects (cell viability) (Caco-2 cells): lacking cytotoxic activity | cytotoxic effects (cell viability) [3]: lacking cytotoxic activity | Alk5 kinase inhibition [1]: approximately 25%
